The numbers were not newly measured in patent publication US20150177227A1, “CELLULAR AND ANIMAL MODELS FOR SCREENING THERAPEUTIC AGENTS FOR THE TREATMENT OF ALZHEIMER'S DISEASE” (priority 2012, published 2015), which cites them from elsewhere.

The subject of one data set is plaque. The conditions noted are these: in vivo.

In the case of “solanezumab: humanized antibody from Eli Lilly & Co. shown to clear plaque”, in the data set with plaque, the plaque clearance result is “clear plaque”. In addition, the “benefit trend in phase II clinical trials” value in the data set with Alzheimer's disease is reported as “neither antibody showed any trend”.
